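1) Cells in 96-well plates. 2) Compound, 48 h, 5 concentrations. 3) Linear interpolation between surrounding doses. 4) Unreached endpoint = highest concentration. TGI marks complete inhibition of growth.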
Legend:
Test in all cases: NCI-60 cell line screen, 48 h
MOLT-4 leukemia = system: MOLT-4 leukemia
CCRF-CEM leukemia = system: CCRF-CEM leukemia
HT29 colon = system: HT29 colon
SR leukemia = system: SR leukemia
SK-OV-3 ovarian = system: SK-OV-3 ovarian
SNB-75 CNS = system: SNB-75 CNS
A498 renal = system: A498 renal
COLO 205 colon = system: COLO 205 colon
HCC-2998 colon = system: HCC-2998 colon
MDA-MB-435 = system: MDA-MB-435
ACHN renal = system: ACHN renal
LOX IMVI melanoma = system: LOX IMVI melanoma
NCI-H23 lung = system: NCI-H23 lung
OVCAR-3 ovarian = system: OVCAR-3 ovarian
MCF7 breast = system: MCF7 breast
SK-MEL-28 melanoma = system: SK-MEL-28 melanoma
U251 CNS = system: U251 CNS
SNB-19 CNS = system: SNB-19 CNS
MDA-N = system: MDA-N
NCI/ADR-RES ovarian = system: NCI/ADR-RES ovarian
TK-10 renal = system: TK-10 renal
SF-295 CNS = system: SF-295 CNS
SN12C renal = system: SN12C renal
A549 NSCLC = system: A549 NSCLC
DU-145 prostate = system: DU-145 prostate
NCI-H460 lung = system: NCI-H460 lung
UO-31 renal = system: UO-31 renal
NCI-H226 lung = system: NCI-H226 lung
UACC-257 melanoma = system: UACC-257 melanoma
RXF 393 renal = system: RXF 393 renal
HS 578T breast = system: HS 578T breast
PC-3 prostate = system: PC-3 prostate
SW-620 colon = system: SW-620 colon
SK-MEL-5 melanoma = system: SK-MEL-5 melanoma
KM12 colon = system: KM12 colon
HCT-116 colon = system: HCT-116 colon
MDA-MB-231 breast = system: MDA-MB-231 breast
SF-268 CNS = system: SF-268 CNS
HOP-92 NSCLC = system: HOP-92 NSCLC
HCT-15 colon = system: HCT-15 colon
OVCAR-4 ovarian = system: OVCAR-4 ovarian
OVCAR-8 ovarian = system: OVCAR-8 ovarian
NCI-H522 lung = system: NCI-H522 lung
T-47D breast = system: T-47D breast
EKVX NSCLC = system: EKVX NSCLC
HL-60(TB) leukemia = system: HL-60(TB) leukemia
MALME-3M melanoma = system: MALME-3M melanoma
HOP-62 NSCLC = system: HOP-62 NSCLC
SK-MEL-2 melanoma = system: SK-MEL-2 melanoma
UACC-62 melanoma = system: UACC-62 melanoma
786-0 renal = system: 786-0 renal
K-562 leukemia = system: K-562 leukemia
M14 melanoma = system: M14 melanoma
SF-539 CNS = system: SF-539 CNS
OVCAR-5 ovarian = system: OVCAR-5 ovarian
IGROV1 ovarian = system: IGROV1 ovarian
CAKI-1 renal = system: CAKI-1 renal
RPMI-8226 leukemia = system: RPMI-8226 leukemia

For CC1(CO)COC(C)(C)OC1, the TGI (MOLT-4 leukemia) was > 100 µM, the TGI (CCRF-CEM leukemia) was > 100 µM and the TGI (HT29 colon) was > 100 µM. For the same compound, the TGI (SR leukemia) was > 100 µM, the TGI (SK-OV-3 ovarian) was > 100 µM and the TGI (SNB-75 CNS) was > 100 µM. For the same compound, the TGI (A498 renal) was > 100 µM, the TGI (COLO 205 colon) was > 100 µM and the TGI (HCC-2998 colon) was > 100 µM. The TGI (MDA-MB-435) was > 100 µM, the TGI (ACHN renal) was > 100 µM and the TGI (LOX IMVI melanoma) was > 100 µM. The TGI (NCI-H23 lung) was > 100 µM, the TGI (OVCAR-3 ovarian) was > 100 µM and the TGI (MCF7 breast) was > 100 µM. For the same compound, the TGI (SK-MEL-28 melanoma) was > 100 µM, the TGI (U251 CNS) was > 100 µM and the TGI (SNB-19 CNS) was > 100 µM. For the same compound, the TGI (MDA-N) was > 100 µM, the TGI (NCI/ADR-RES ovarian) was > 100 µM and the TGI (TK-10 renal) was > 100 µM. For the same compound, the TGI (SF-295 CNS) was > 100 µM, the TGI (SN12C renal) was > 100 µM and the TGI (A549 NSCLC) was > 100 µM. For the same compound, the TGI (DU-145 prostate) was > 100 µM, the TGI (NCI-H460 lung) was > 100 µM and the TGI (UO-31 renal) was > 100 µM. For the same compound, the TGI (NCI-H226 lung) was > 100 µM, the TGI (UACC-257 melanoma) was > 100 µM and the TGI (RXF 393 renal) was > 100 µM. The TGI (HS 578T breast) was > 100 µM, the TGI (PC-3 prostate) was > 100 µM and the TGI (SW-620 colon) was > 100 µM. For the same compound, the TGI (SK-MEL-5 melanoma) was > 100 µM, the TGI (KM12 colon) was > 100 µM and the TGI (HCT-116 colon) was > 100 µM. The TGI (MDA-MB-231 breast) was > 100 µM, the TGI (SF-268 CNS) was > 100 µM and the TGI (HOP-92 NSCLC) was > 100 µM. For the same compound, the TGI (HCT-15 colon) was > 100 µM, the TGI (OVCAR-4 ovarian) was > 100 µM and the TGI (OVCAR-8 ovarian) was > 100 µM. The TGI (NCI-H522 lung) was > 100 µM and the TGI (T-47D breast) was > 100 µM.
Compound CC12CP(=O)(c3ccccc3)CC1c1ccccc1C2c1ccccc1 (configuration not stated) has a TGI (EKVX NSCLC) of 44.6 µM, a TGI (MOLT-4 leukemia) of 31 µM and a TGI (CCRF-CEM leukemia) of 23.5 µM. The TGI (HT29 colon) was 28.8 µM, the TGI (SR leukemia) was 29.8 µM and the TGI (SK-OV-3 ovarian) was > 100 µM. The TGI (A498 renal) was > 100 µM, the TGI (HCC-2998 colon) was 33.9 µM and the TGI (MDA-MB-435) was 30.1 µM. The TGI (ACHN renal) was 41.1 µM, the TGI (NCI-H23 lung) was 41.8 µM and the TGI (OVCAR-3 ovarian) was 31.7 µM. The TGI (MCF7 breast) was > 100 µM, the TGI (SK-MEL-28 melanoma) was 75 µM and the TGI (U251 CNS) was 36.7 µM. For the same compound, the TGI (SNB-19 CNS) was > 100 µM, the TGI (MDA-N) was 33.6 µM and the TGI (NCI/ADR-RES ovarian) was 32.7 µM. The TGI (TK-10 renal) was > 100 µM, the TGI (SF-295 CNS) was 29.8 µM and the TGI (SN12C renal) was 32.2 µM. For the same compound, the TGI (HL-60(TB) leukemia) was 28.5 µM, the TGI (A549 NSCLC) was 36.2 µM and the TGI (DU-145 prostate) was 64 µM. The TGI (NCI-H460 lung) was 27.6 µM, the TGI (MALME-3M melanoma) was 30.3 µM and the TGI (UO-31 renal) was 30.4 µM. The TGI (NCI-H226 lung) was 44.1 µM, the TGI (HOP-62 NSCLC) was 35.4 µM and the TGI (RXF 393 renal) was 46.6 µM. The TGI (HS 578T breast) was > 100 µM, the TGI (PC-3 prostate) was 27.1 µM and the TGI (SW-620 colon) was 33.2 µM. The TGI (SK-MEL-5 melanoma) was 55.1 µM, the TGI (SK-MEL-2 melanoma) was 49.4 µM and the TGI (UACC-62 melanoma) was > 100 µM. It also gave a TGI (KM12 colon) of 33.6 µM, a TGI (HCT-116 colon) of 30.4 µM and a TGI (786-0 renal) of 32.8 µM. For the same compound, the TGI (MDA-MB-231 breast) was 40.1 µM, the TGI (SF-268 CNS) was 67 µM and the TGI (HOP-92 NSCLC) was 50 µM. It also gave a TGI (K-562 leukemia) of 25.5 µM, a TGI (M14 melanoma) of 31.8 µM and a TGI (SF-539 CNS) of 34.1 µM. The TGI (HCT-15 colon) was 27.2 µM, the TGI (OVCAR-8 ovarian) was 28.6 µM and the TGI (OVCAR-5 ovarian) was > 100 µM. For the same compound, the TGI (IGROV1 ovarian) was 46 µM and the TGI (T-47D breast) was 37.5 µM.
With CCOC(=O)c1csc(NC(=O)CN(C)C)n1 the TGI (EKVX NSCLC) was > 100 µM, the TGI (MOLT-4 leukemia) was > 100 µM and the TGI (CCRF-CEM leukemia) was > 100 µM. The TGI (HT29 colon) was > 100 µM, the TGI (SR leukemia) was > 100 µM and the TGI (SK-OV-3 ovarian) was > 100 µM. For the same compound, the TGI (SNB-75 CNS) was > 100 µM, the TGI (A498 renal) was > 100 µM and the TGI (COLO 205 colon) was > 100 µM. The TGI (HCC-2998 colon) was > 100 µM, the TGI (MDA-MB-435) was > 100 µM and the TGI (ACHN renal) was > 100 µM. For the same compound, the TGI (LOX IMVI melanoma) was > 100 µM, the TGI (NCI-H23 lung) was > 100 µM and the TGI (OVCAR-3 ovarian) was > 100 µM. For the same compound, the TGI (MCF7 breast) was > 100 µM, the TGI (SK-MEL-28 melanoma) was > 100 µM and the TGI (U251 CNS) was > 100 µM. The TGI (SNB-19 CNS) was > 100 µM, the TGI (MDA-N) was > 100 µM and the TGI (NCI/ADR-RES ovarian) was > 100 µM. For the same compound, the TGI (TK-10 renal) was > 100 µM, the TGI (SF-295 CNS) was > 100 µM and the TGI (HL-60(TB) leukemia) was > 100 µM. For the same compound, the TGI (A549 NSCLC) was > 100 µM, the TGI (DU-145 prostate) was > 100 µM and the TGI (NCI-H460 lung) was > 100 µM. For the same compound, the TGI (UO-31 renal) was > 100 µM, the TGI (NCI-H226 lung) was > 100 µM and the TGI (HOP-62 NSCLC) was > 100 µM. For the same compound, the TGI (UACC-257 melanoma) was > 100 µM, the TGI (RXF 393 renal) was > 100 µM and the TGI (HS 578T breast) was > 100 µM. The TGI (PC-3 prostate) was > 100 µM, the TGI (SW-620 colon) was > 100 µM and the TGI (SK-MEL-5 melanoma) was > 100 µM. The TGI (SK-MEL-2 melanoma) was > 100 µM, the TGI (UACC-62 melanoma) was > 100 µM and the TGI (CAKI-1 renal) was > 100 µM. For the same compound, the TGI (KM12 colon) was > 100 µM, the TGI (MDA-MB-231 breast) was > 100 µM and the TGI (SF-268 CNS) was > 100 µM. The TGI (HOP-92 NSCLC) was > 100 µM, the TGI (RPMI-8226 leukemia) was > 100 µM and the TGI (K-562 leukemia) was > 100 µM. For the same compound, the TGI (M14 melanoma) was > 100 µM, the TGI (SF-539 CNS) was > 100 µM and the TGI (HCT-15 colon) was > 100 µM. For the same compound, the TGI (OVCAR-4 ovarian) was > 100 µM, the TGI (OVCAR-8 ovarian) was > 100 µM and the TGI (OVCAR-5 ovarian) was > 100 µM. For the same compound, the TGI (IGROV1 ovarian) was > 100 µM and the TGI (T-47D breast) was > 100 µM.

— PubChem BioAssay (NCI)
